The values that follow are results of earlier work, collected in patent US11571438B1, “Nutraceutical compositions to up-regulate SIRT1 and methods of use” (priority 2022, dated 2023).

Each structure is given as a SMILES string.

The test system of data set [1] is AMPK. Conditions: individual administration.
The subject of data set [2] is mTOR. Conditions: individual administration.

`COc1ccc2cc3[n+](cc2c1OC)CCc1cc2c(cc1-3)OCO2` [berberine]: in data set [1], the AMPK activation entry is listed as “statistically significant increase”. Besides, the mTOR inhibition entry in data set [2] is listed as “statistically significant increase”.
Consider `COc1cc(/C=C/C(=O)O)ccc1O` [ferulic acid], for which, in data set [1], the AMPK activation entry is “statistically significant increase”. Also, the mTOR inhibition result in data set [2] is on record as “statistically significant increase”.
On to `O=c1c(O)c(-c2ccc(O)c(O)c2)oc2cc(O)cc(O)c12` [quercetin], for which the AMPK activation result in data set [1] is given as “statistically significant increase”. Also, the mTOR inhibition entry in data set [2] was “statistically significant increase”.
Turning to `OCCc1ccc(O)cc1` [tyrosol], the AMPK activation entry in data set [1] was “statistically significant increase”. The mTOR inhibition result in data set [2] was “statistically significant increase”.
